Laboratory results from patent publication US20210161999A1, “COMPOSITIONS AND METHODS RELATED TO OVERCOMING INNATE IMMUNE BARRIERS TO CANCER IMMUNOTHERAPY” (Health Research, Inc., priority 2018, published 2021).
Entries after “also recorded” stand apart in the source; their conditions may differ.

Columns and labels:
T cells = test: Surface expression of PD-1, LAG-3 and CTLA-4 on stimulated T cells after coculture (flow cytometry); type: cell-based, human; conditions: coculture with Cp40-ASC and PMN, compared to unstimulated (n=6)
Experimental: FIG. 6. Combination of ascites and PMN prevents T cell activation and is independent of exhaustion. T cells (CD3^+) and PMN were used in autologous coculture at 1:1. PMN and/or ascites supernatants (ASC; 50% final well volume) were added to anti-CD3/CD28-stimulated T cells. At 24, 48, and 72 h, T cells were analyzed for surface and intracellular expression of markers for activation, co-stimulation, and function. Surface expression of A) CD62L, B) CD69, C) CD4OL, and D) CD107a were evaluated at baseline (on y-axis) and at 24, 48, and 72 h (n=2). E-M) PD-1, LAG-3, and CTLA-4 expression was evaluated (n=4). CD8^+ T cells at 72 h are represented here in representative MFI overlays (E-G) and quantification (H-J); unstimulated T cells in media, grey solid; anti-CD3/CD28-stimulated, black dashed line; anti-CD3/CD28-stimulated+PMN, purple solid line; anti-CD3/CD28-stimulated+ASC, orange solid line; anti-CD3/CD28-stimulated+ASC+PMN, green solid line. […] N) At 72 h, intracellular expression of IFN-gamma was reduced as compared to stimulated alone (n=3). O-P) Combination of ASC and PMN reduced anti-CD3/CD28-stimulated T cell IL-2 levels (pg/mL) in supernatants to ND after 24 (O) and 72 h (P) of coculture (n=4). Background levels of PMN or ASC were ND; ND=non-detectable. Q) CTL activity of NY-ESO-1157-165-specific CD8^+ T cells directed at SK29 target cells pulsed with the NY-ESO-1 peptide was unaffected by coculture with ASC and/or PMN (n=3). Symbols represent individual samples (n) and bars represent SEM. Statistical comparisons were by Mann-Whitney (*, p<0.05; **, p<0.01; ***, p<0.001; ns, not significant). Results were consistent between CD4^+ and CD8^+ T cells.
Data were analyzed using FCS Express 6.
Fc receptors were blocked to prevent non-specific antibody binding prior to staining (15 min, 4° C.; anti-mouse CD16/CD32, clone 2.4G2; BD Biosciences). For phenotyping of PMN, antibodies targeted to human CD45 (clone REA747), CD15 (VIMC6) (Miltenyi Biotec, Inc.), CD63 (H5C6), CD66b (G10F5), and CD35 (Ell) (Biolegend) were used. […]

[1] = system: PMN suppressor phenotype induced by malignant effusions; test: Coculture of PMN and stimulated T cells with malignant effusions (pleural fluid, ascites) of various metastatic cancers; T cell proliferation; type: cell-based, human; conditions: Cp40-treated malignant pleural fluid/ascites from various metastatic cancers (n=7)
Excerpt: We analyzed whether the PMN suppressor phenotype induced by EOC ascites would also occur following PMN exposure to other malignant effusions. We observed a similar PMN suppressor phenotype when PMN and anti-CD3/CD28-stimulated T cells were cocultured with malignant pleural and ascites supernatants from patients with a number of metastatic cancers (18/20 samples induced a PMN suppressor or intermediate suppressor phenotype). Using samples that met the suppressor definition (Table 3), the PMN suppressor phenotype induced by malignant pleural and ascites was also abrogated by Cp40-treatment (FIG. 3K).
Patients and Specimens. Participants included healthy donors, control female patients with a benign adnexal mass undergoing resection surgery, and cancer patients with malignant effusions. Healthy donors (n=4) were Caucasian, aged 26-51, and equally divided between sexes. […]
Freshly isolated T cells (1e5) were stimulated with anti-CD3/CD28 Dynabeads (2.5 μl; Thermo Fisher Scientific) and cocultured with autologous PMN (1:1) and ascites supernatants (50% final well volume) in an incubator at 37° C., 5% CO2. […] Cells were harvested onto a Filtermat and counted on a Beta counter. Results are expressed as net cpm [calculated by subtracting the average cpm of unstimulated T cells from the average cpm of stimulated T cells]. […]

## CC[C@H](C)[C@H](NC(=O)[C@H](N)Cc1ccc(O)cc1)C(=O)N[C@H]1CSSC[C@@H](C(=O)N(C)[C@H](C(N)=O)[C@@H](C)CC)NC(=O)[C@H](CCCNC(=N)N)NC(=O)[C@H](Cc2c[nH]cn2)NC(=O)[C@H](C)NC(=O)CN(C)C(=O)[C@H](Cc2c[nH]c3ccccc23)NC(=O)[C@H](CC(=O)O)NC(=O)[C@H](CCC(N)=O)NC(=O)[C@H](Cc2cn(C)c3ccccc23)NC(=O)[C@H](C(C)C)NC1=O [Cp40]
T cells
  CTLA-4 expression on stimulated T cells: showed an upwards trend; also recorded: upregulated relative to unstimulated T cells
  LAG-3 expression on stimulated T cells: unaffected; also recorded: did not result in upregulation
  PD-1 expression on stimulated T cells: unaffected; also recorded: did not result in upregulation
[1]
  effect on PMN suppressor phenotype induced by malignant effusions: abrogated by Cp40-treatment in all of the tested samples
